9 molecules from paper PMC10580965 (Microbiology Spectrum, 2023) can be followed below.

≈ marks a conversion by molar mass, not a printed value. Like-named read-outs stand apart in the source and are kept apart here. Bridge positions count the residues as written; N and C are the ends. Square brackets hold non-standard residues; d marks the D form. Peptide text beside a SMILES is read from it. * marks the point of attachment. Ileψ(thiazoline)Cys = CC[C@H](C)[C@H](N)C1=N[C@H](C(=O)*)CS1; dOrn = NCCC[C@@H](N)C(=O)O; X1 = CC[C@H](C)CCCCC(=O)*; Dab = NCC[C@H](N)C(=O)O

Experiment [1] relates to C. pseudotuberculosis ΔlysX.
For experiment [2], the system named is C. pseudotuberculosis ΔalaDAGS.

With `CC[C@H](C)[C@H](N)C1=N[C@H](C(=O)N[C@@H](CC(C)C)C(=O)N[C@H](CCC(=O)O)C(=O)N[C@H](C(=O)N[C@H]2CCCCNC(=O)[C@H](CC(N)=O)NC(=O)[C@@H](CC(=O)O)NC(=O)[C@H](Cc3cnc[nH]3)NC(=O)[C@@H](Cc3ccccc3)NC(=O)[C@H]([C@@H](C)CC)NC(=O)[C@@H](CCCN)NC2=O)[C@@H](C)CC)CS1` [Bacitracin] ({Ileψ(thiazoline)Cys}-L[dE]IK[dOrn]I[dF]H[dD]N; lactam 4-C (inferred); N-terminus assumed), in experiment [1], the “wt/ΔlysX (fold-change)” value stood at 2 fold-change. In addition, in experiment [1] (24 h), the “MIC ΔlysX” value came to 3.2 mg/L (≈ 2.25 µM). Besides, the “MIC ΔalaDAGS” value in experiment [2] (24 h) was 6.4 mg/L (≈ 4.5 µM).

Consider `CO/N=C(\C(=O)N[C@@H]1C(=O)N2C(C(=O)O)=C(CSc3nc(=O)c(=O)[nH]n3C)CS[C@H]12)c1csc(N)n1` [Ceftriaxone], for which, in experiment [1], the “protective advantage conferred by lysX” value is reported as “no protective advantage”.

As to `CNC(C)C1CCC(N)C(OC2C(N)CC(N)C(OC3OCC(C)(O)C(NC)C3O)C2O)O1` (stereo not shown) [Gentamicin], the “MIC ΔlysX” value in experiment [1] was found to be 0.078 mg/L (≈ 0.163 µM).

On to `NC[C@H]1O[C@H](O[C@H]2[C@H](O)[C@@H](O[C@H]3O[C@H](CO)[C@@H](O)[C@H](N)[C@H]3O)[C@H](N)C[C@@H]2N)[C@H](O)[C@@H](O)[C@@H]1O` [Kanamycin], for which, in experiment [1], the “MIC ΔlysX” value came to 1.25 mg/L (≈ 2.58 µM) and the “wt/ΔlysX (fold-change)” value was 8 fold-change. The “MIC ΔalaDAGS” value in experiment [2] was determined as 10 mg/L (≈ 20.6 µM).

Regarding `CC[C@H](C)[C@H](NC(=O)CN)C(=O)NCC(=O)N[C@@H](C)C(=O)N[C@H](C(=O)N[C@@H](CC(C)C)C(=O)N[C@@H](CCCCN)C(=O)N[C@H](C(=O)N[C@@H](CC(C)C)C(=O)N[C@H](C(=O)N[C@H](C(=O)NCC(=O)N[C@@H](CC(C)C)C(=O)N1CCC[C@H]1C(=O)N[C@@H](C)C(=O)N[C@@H](CC(C)C)C(=O)N[C@H](C(=O)N[C@@H](CO)C(=O)N[C@@H](Cc1c[nH]c2ccccc12)C(=O)N[C@H](C(=O)N[C@@H](CCCCN)C(=O)N[C@@H](CCCNC(=N)N)C(=O)N[C@@H](CCCCN)C(=O)N[C@@H](CCCNC(=N)N)C(=O)N[C@@H](CCC(N)=O)C(=O)N[C@@H](CCC(N)=O)C(N)=O)[C@@H](C)CC)[C@@H](C)CC)[C@@H](C)O)[C@@H](C)O)C(C)C)C(C)C` [Melittin], the “wt/ΔlysX (fold-change)” value in experiment [1] is reported as over 4 fold-change. In experiment [1] (24 h), the “MIC ΔlysX” value turned out to be 10 mg/L (≈ 3.51 µM). Further, the “MIC ΔalaDAGS” value in experiment [2] (24 h) is over 40 mg/L.

Regarding `CC[C@H](C)CCCCC(=O)N[C@@H](CCN)C(=O)N[C@H](C(=O)N[C@@H](CCN)C(=O)N[C@H]1CCNC(=O)[C@H]([C@@H](C)O)NC(=O)[C@H](CCN)NC(=O)[C@H](CCN)NC(=O)[C@H](CC(C)C)NC(=O)[C@@H](Cc2ccccc2)NC(=O)[C@H](CCN)NC1=O)[C@@H](C)O` [Polymyxin B] (X1-[Dab]T[Dab][Dab][Dab][dF]L[Dab][Dab]T; lactam 4-C (inferred); N-terminus assumed), the “MIC ΔlysX” value in experiment [1] (24 h) was 10 mg/L (≈ 8.31 µM). Also, the “MIC ΔalaDAGS” value in experiment [2] (24 h) is 640 mg/L (≈ 532 µM).

For the molecule `CCCNC[C@]1(O)[C@H](C)O[C@@H](O[C@H]2[C@H](C)[C@@H](O[C@@H]3O[C@H](C)C[C@H](N(C)C)[C@H]3O)[C@](C)(O)C[C@@H](C)CN[C@H](C)[C@@H](O)[C@](C)(O)[C@@H](CC)OC(=O)[C@@H]2C)C[C@@]1(C)OC` [Tulathromycin], in experiment [1], the “MIC ΔlysX” value was found to be 1.25 mg/L (≈ 1.55 µM) and the “wt/ΔlysX (fold-change)” value is on record as 2 fold-change. Moreover, the “MIC ΔalaDAGS” value in experiment [2] was 2.5 mg/L (≈ 3.1 µM).

Take `CN[C@H](CC(C)C)C(=O)N[C@H]1C(=O)N[C@@H](CC(N)=O)C(=O)N[C@H]2C(=O)N[C@H]3C(=O)N[C@H](C(=O)N[C@H](C(=O)O)c4cc(O)cc(O)c4-c4cc3ccc4O)[C@H](O)c3ccc(c(Cl)c3)Oc3cc2cc(c3O[C@@H]2O[C@H](CO)[C@@H](O)[C@H](O)[C@H]2O[C@H]2C[C@](C)(N)[C@H](O)[C@H](C)O2)Oc2ccc(cc2Cl)[C@H]1O` [Vancomycin]: the “wt/ΔlysX (fold-change)” value in experiment [1] stood at 2 fold-change. Further, in experiment [1] (24 h), the “MIC ΔlysX” value was found to be 0.375 mg/L (≈ 0.259 µM). Further, the “MIC ΔalaDAGS” value in experiment [2] (24 h) was found to be 0.75 mg/L (≈ 0.518 µM).

Nisin: in experiment [1], the “MIC ΔlysX” value came out at 2.5 mg/L and the “wt/ΔlysX (fold-change)” value amounted to 32 fold-change. In experiment [2], the “MIC ΔalaDAGS” value was 80 mg/L.
